From US8673894B2 (Hoffmann-La Roche Inc., priority 2010, dated 2014) come the findings set out here.

The target of assay [1] is T1, endogenous cellular BACE2 (Rattus norvegicus, UniProt Q6IE75).
T1 construct: endogenous cellular BACE2 in the Ins1e rat cell line; endogenous in cells; host or cells: INS-TMEM27 (INS1e-derived rat insulinoma cell line with doxycycline-inducible full-length human TMEM27)
T1 sequence (Q6IE75 63-514): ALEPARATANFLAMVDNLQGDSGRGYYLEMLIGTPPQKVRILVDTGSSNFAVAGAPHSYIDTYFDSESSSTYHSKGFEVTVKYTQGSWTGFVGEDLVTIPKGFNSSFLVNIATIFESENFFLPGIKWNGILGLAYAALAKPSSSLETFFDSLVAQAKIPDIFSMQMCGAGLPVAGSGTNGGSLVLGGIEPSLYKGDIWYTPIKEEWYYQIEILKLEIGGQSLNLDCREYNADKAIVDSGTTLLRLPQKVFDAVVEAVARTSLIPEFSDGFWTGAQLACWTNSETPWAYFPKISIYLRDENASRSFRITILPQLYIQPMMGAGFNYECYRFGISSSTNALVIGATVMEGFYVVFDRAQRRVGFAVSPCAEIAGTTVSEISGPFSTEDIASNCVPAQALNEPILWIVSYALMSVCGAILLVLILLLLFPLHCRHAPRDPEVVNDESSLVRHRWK
Nature of the assay: Assay for BACE inhibition by measuring cellular TMEM27 cleavage. The format is cell-based. Conditions: INS-TMEM27 (INS1e-derived) cells, shed human TMEM27 in supernatant by ELISA. The text has this: Assay for BACE Inhibition by Measuring Cellular TMEM27 Cleavage:
The assay uses the principle of inhibition of human TMEM27 cleavage by endogenous cellular BACE2 in the Ins1e rat cell line and shedding from the cell surface into the culture medium, followed by detection in an ELISA assay. Inhibition of BACE2 prevents the cleavage and shedding in a dose-dependent manner.
The stable cell line “INS-TMEM27” represents an INS1e-derived cell line with inducible expression (using the TetOn system) of full-length hTMEM27 in a doxycycline-dependent manner. The cells are cultured throughout the experiment in RPMI1640+ Glutamax (Invitrogen) Penicillin/Streptomycin, 10% Fetal bovine serum, […], […], 100 micrograms/ml G418 and 100 microgram/ml hygromycin and are grown inadherent culture at 37° C. in a standard CO2 cell culture incubator.
INS-TMEM27 cells are seeded in 96-well plates. After 2 days in culture, BACE2 inhibitor is added in a range of concentrations as required by the assay and after a further two hours, doxycycline is added to a final concentration of 500 ng/ml. The cells are incubated for a further 46 hours and the supernatant harvested for detection of shed TMEM27.
An ELISA assay (using a pair of mouse anti-human-TMEM27 antibodies, raised against the extracellular domain of TMEM27) is used for detection of TMEM27 in the culture medium. An EC50 for BACE2 inhibition is calculated using the ELISA readout for each inhibitor concentration with standard curve-fitting software such as XLFit for the Excel spreadsheet program.
Background: In an ELISA, binding on a coated surface is turned into a signal by an enzyme label.

In assay [2] the test system is Aβ40. Nature of the assay: Cellular Aβ-lowering assay. The assay is classed as cell-based. Conditions: HEK293 cells stably expressing human APP695, Aβ40 in supernatant by ELISA after 18-20 hrs; read-out: Cellular assay Abeta40 IC50. As for the experimental part:
Cellular Aβ-Lowering Assay:
Human HEK293 cells which are stably transfected with a vector expressing a cDNA of the human APP wt gene (APP695) were used to assess the potency of the compounds in a cellular assay. The cells were seeded in 96-well microtiter plates in cell culture medium (Iscove, plus 10% (v/v) fetal bovine serum, glutamine, penicillin/streptomycin) to about 80% confluence and the compounds were added at a 10× concentration in 1/10 volume of medium without FCS containing 8% DMSO (final concentration of DMSO was kept at 0.8% v/v). After 18-20 hrs incubation at 37° C. and 5% CO2 in a humidified incubator the culture supernatant was harvested for the determination of Aβ40 concentrations. 96well ELISA plates (e.g., Nunc MaxiSorb) were coated with monoclonal antibody which specifically recognize the C-terminal end of Aβ40 (Brockhaus et al., NeuroReport 9, 1481-1486; 1998). After blocking of non-specific binding sites with e.g. 1% BSA and washing, the culture supernatants were added in suitable dilutions together with a horseradish peroxidase-coupled Aβ detection antibody (e.g., antibody 4G8, Senetek, Maryland Heights, Mo.) and incubated for 5 to 7 hrs. Subsequently the wells of the microtiter plate were washed extensively with Tris-buffered saline containing 0.05% Tween 20 and the assay was developed with tetramethylbenzidine/H2O2 in citric acid buffer. After stopping the reaction with one volume 1 N H2SO4 the reaction was measured in an ELISA reader at 450 nm wavelength. The concentrations of Aβ in the culture supernatants were calculated from a standard curve obtained with known amounts of pure Aβ peptide.

Where a name gives a salt, the structure may show the parent alone.

The IC50 is the midpoint of a concentration-inhibition curve. For the molecule `C[C@]1(c2cc(NC(=O)c3ncccc3OCC(F)(F)F)ccc2F)N=C(N)COCC1(F)F` [Example 59, (R)-N-(3-(3-amino-6,6-difluoro-5-methyl-2,5,6,7-tetrahydro-1,4-oxazepin-5-yl)-4-fluorophenyl)-3-(2,2,2-trifluoroethoxy)picolinamide], the IC50 in assay [1] amounted to 170 nM; in assay [2], 160 nM.
Taken in the same sequence, the figures for `C[C@@]1(c2cc(NC(=O)c3ccc(C#N)cn3)ccc2F)COCCC(N)=N1` [Example 53, 5-Cyano-pyridine-2-carboxylic acid [3-((R)-5-amino-3-methyl-2,3,6,7-tetrahydro-[1,4]oxazepin-3-yl)-4-fluoro-phenyl]-amide] were 41 nM and 10 nM.
As for `CC[C@]1(c2cc(NC(=O)c3ncc(F)cc3Cl)ccc2F)N=C(N)COCC1(F)F` [Example 84, (R)-N-(3-(3-Amino-5-ethyl-6,6-difluoro-2,5,6,7-tetrahydro-1,4-oxazepin-5-yl)-4-fluorophenyl)-3-chloro-5-fluoropicolinamide], the results for the IC50 in assay [1] and in assay [2] were 60.2 nM and 130 nM, respectively.
Taken in the same sequence, the figures for `CCc1n[nH]c(C(=O)Nc2ccc(F)c([C@@]3(C)N=C(N)COCC3(F)F)c2)c1C` [Example 107, (R)-N-(3-(3-Amino-6,6-difluoro-5-methyl-2,5,6,7-tetrahydro-1,4-oxazepin-5-yl)-4-fluorophenyl)-3-ethyl-4-methyl-1H-pyrazole-5-carboxamide] were 886 nM and 790 nM.
On the same counts, the results for `C[C@]1(c2cc(NC(=O)c3ncc(F)cc3Cl)ccc2F)N=C(N)COCC1(F)F` [Example 40, (R)-N-(3-(3-amino-6,6-difluoro-5-methyl-2,5,6,7-tetrahydro-1,4-oxazepin-5-yl)-4-fluorophenyl)-3-chloro-5-fluoropicolinamide formate] are 6.2 nM and 5.9 nM.
On the same counts, the results for `CC1(C)OCC(N)=N[C@](C)(c2cc(NC(=O)c3ccc(C#N)cn3)c(F)cc2F)C1(F)F` [Example 117, (R)-N-(5-(3-amino-6,6-difluoro-5,7,7-trimethyl-2,5,6,7-tetrahydro-1,4-oxazepin-5-yl)-2,4-difluorophenyl)-5-cyanopicolinamide] are 30000 nM and 34 nM.
Take `CC[C@]1(c2cc(NC(=O)c3cccnn3)ccc2F)N=C(N)COCC1(F)F` [Example 81, (R)-N-(3-(3-Amino-5-ethyl-6,6-difluoro-2,5,6,7-tetrahydro-1,4-oxazepin-5-yl)-4-fluorophenyl)pyridazine-3-carboxamide]: the half-maximal inhibitory concentration (IC50) in assay [1] worked out at 421000 nM; in assay [2], 5680 nM.
Taken in the same sequence, the figures for `C[C@]1(c2cc(NC(=O)c3ccn(C(F)F)n3)ccc2F)N=C(N)COCC1(F)F` [Example 44, (R)-N-(3-(3-amino-6,6-difluoro-5-methyl-2,5,6,7-tetrahydro-1,4-oxazepin-5-yl)-4-fluorophenyl)-1-(difluoromethyl)-1H-pyrazole-3-carboxamide formate] were 1.2 nM and 2.4 nM.
Taken in the same sequence, the figures for `Cc1conc1C(=O)Nc1ccc(F)c([C@@]2(C)N=C(N)COCC2(F)F)c1` [Example 104, (R)-N(R)-N-(3-(3-Amino-6,6-difluoro-5-methyl-2,5,6,7-tetrahydro-1,4-oxazepin-5-yl)-4-fluorophenyl)-4-methylisoxazole-3-carboxamide] were 95.6 nM and 160 nM.
Taken in the same sequence, the figures for `CC[C@]1(c2cc(NC(=O)c3ccc(C#N)cn3)ccc2F)N=C(N)COCC1(F)F` [Example 79, (R)-N-(3-(3-Amino-5-ethyl-6,6-difluoro-2,5,6,7-tetrahydro-1,4-oxazepin-5-yl)-4-fluorophenyl)-5-cyanopicolinamide] were 67.1 nM and 70 nM.
Take `CCOCc1ccc(C(=O)Nc2ccc(F)c([C@@]3(C)N=C(N)COCC3(F)F)c2)nc1` [Example 57, (R)-N-(3-(3-amino-6,6-difluoro-5-methyl-2,5,6,7-tetrahydro-1,4-oxazepin-5-yl)-4-fluorophenyl)-5-(ethoxymethyl)picolinamide formate]: the figures for the IC50 in assay [1] and in assay [2] were 280 nM and 14 nM, respectively.
As for `CCOC(=O)c1ccc(C(=O)Nc2ccc(F)c([C@@]3(C)N=C(N)COCC3(F)F)c2)nc1` [Example 58, (R)-ethyl 6-(3-(3-amino-6,6-difluoro-5-methyl-2,5,6,7-tetrahydro-1,4-oxazepin-5-yl)-4-fluorophenylcarbamoyl)nicotinate formate formate], the values for the 50% inhibitory concentration (IC50) in assay [1] and in assay [2] were 139 nM and 120 nM, respectively.
Taken in the same sequence, the figures for `C[C@]1(c2cc(NC(=O)c3ccccn3)ccc2F)N=C(N)COCC1(F)F` [Example 35, (R)-N-(3-(3-amino-6,6-difluoro-5-methyl-2,5,6,7-tetrahydro-1,4-oxazepin-5-yl)-4-fluorophenyl)picolinamide formate] were 29 nM and 14 nM.
Taken in the same sequence, the figures for `CC[C@]1(c2cc(NC(=O)c3ccc(Cl)cn3)ccc2F)N=C(N)COCC1(F)F` [Example 82, (R)-N-(3-(3-Amino-5-ethyl-6,6-difluoro-2,5,6,7-tetrahydro-1,4-oxazepin-5-yl)-4-fluorophenyl)-5-chloropicolinamide] were 36.2 nM and 40 nM.
Taken in the same sequence, the figures for `NC1=N[C@@]2(c3cccc(NC(=O)c4ccc(Cl)cn4)c3)C[C@H]2COC1` (racemic) [Example 3, 5-Chloro-pyridine-2-carboxylic acid [3-((1SR,7RS)-3-amino-5-oxa-2-aza-bicyclo[5.1.0]oct-2-en-1-yl)-phenyl]-amide] were 245 nM and 34 nM.
Consider `C[C@]1(c2cc(NC(=O)c3ccc(OC(F)F)cn3)ccc2F)N=C(N)COCC1(F)F` [Example 48, (R)-N-(3-(3-amino-6,6-difluoro-5-methyl-2,5,6,7-tetrahydro-1,4-oxazepin-5-yl)-4-fluorophenyl)-5-(difluoromethoxy)picolinamide formate], for which the IC50 in assay [1] is 88 nM; in assay [2], 1 nM.
Regarding `C[C@]1(c2cc(NC(=O)c3ccc(C#N)cn3)ccc2F)N=C(N)COCC1(F)F` [Example 30, (R)-N-(3-(3-amino-6,6-difluoro-5-methyl-2,5,6,7-tetrahydro-1,4-oxazepin-5-yl)-4-fluorophenyl)-5-cyanopicolinamide formate], the IC50 was 43 nM in assay [1] and 2.1 nM in assay [2].
Taken in the same sequence, the figures for `C[C@]1(c2cc(NC(=O)c3ncccc3OCC(F)(F)F)ccc2F)N=C(N)COC[C@@H]1F` [Example 112, N-(3-((5R,6R)-3-amino-6-fluoro-5-methyl-2,5,6,7-tetrahydro-1,4-oxazepin-5-yl)-4-fluorophenyl)-3-(2,2,2-trifluoroethoxy)picolinamide] were 129 nM and 69 nM.
With `Cc1cc(Cl)cnc1C(=O)Nc1ccc(F)c([C@@]2(C)N=C(N)COCC2(F)F)c1` [Example 31, (R)-N-(3-(3-amino-6,6-difluoro-5-methyl-2,5,6,7-tetrahydro-1,4-oxazepin-5-yl)-4-fluorophenyl)-5-chloro-3-methylpicolinamide formate], the values for the concentration for half-maximal inhibition (IC50) in assay [1] and in assay [2] were 2.6 nM and 1 nM, respectively.
